Reference: patent US20090156609A1, “TREATMENT OF POST-TRAUMATIC STRESS DISORDER WITH TETRAHYDROINDOLONE ARYLPIPERZAINE COMPOUNDS” (priority 2007, published 2009)

System: C57/BL6 male mice
Assay: Contextual fear conditioning in a passive avoidance model
Type: in vivo
Procedure: The passive avoidance model is an example of a fear conditioning behavior. To perform this test, animals were trained and tested in a Kinder Scientific avoidance system consisting of a shuttle box with a shock grid floor. On day one, mice were introduced to the system by being allowed to move freely between a darkened side and a lighted side of the shuttle box for 3 minutes after a 1 minute acclimation in the dark. Day two (24 hours later) was similar to the first day except that animals received a 1.0 mA foot shock after crossing to the dark compartment. Vehicle or test compounds are administered subcutaneously 30 minutes prior to this training day. Twenty four hours after the training day, animals were put back in the shuttle box and after a minute acclimation period in the dark, the latency to cross from the lighted to the dark compartment (now with the shock off) was recorded.
Response to the development of contextual fear conditioning in an open field model was evaluated in C57/BL6 male mice using an avoidance shuttle chamber (Kinder Scientific, Poway, Calif.). On Day 1, mice were allowed to run through the shuttle box for 3 minutes in order to acclimate them to it. One side was light and the other was dark. One Day 2, animals were dosed subcutaneously […] prior to training. […] The latency to cross to the dark side was recorded, with a 3 minute maximum testing duration.

## O=C1CCCc2c1ccn2CCN1CCN(c2cccc(Cl)c2)CC1 [Compound A, 1-{2-[4-(3-Chlorophenyl)piperazin-1-yl]ethyl}-1,5,6,7-tetrahydroindol-4-one]
Dosed subcutaneously 20 minutes prior to training, tested 24 hours later
  latency to cross over to the dark side compared to vehicle (FIG. 3): showed a reduction in latency to cross over to the dark side
Testing on Days 3-5 post-shock administration
  duration of the improvement in latency: three consecutive days of testing
